PubChem BioAssay (NCI)
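Cells were grown in 96-well plates and exposed to each compound for 48 hours at five concentrations; endpoints were interpolated linearly between bracketing concentrations, or set to the highest concentration if not reached. TGI marks complete inhibition of growth.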

Legend:
Test in all cases: inhibition of tumour cell growth, NCI panel, 48 h
786-0 renal = tested on: 786-0 renal
A549 NSCLC = tested on: A549 NSCLC
ACHN renal = tested on: ACHN renal
BT-549 breast = tested on: BT-549 breast
CAKI-1 renal = tested on: CAKI-1 renal
CCRF-CEM leukemia = tested on: CCRF-CEM leukemia
COLO 205 colon = tested on: COLO 205 colon
DU-145 prostate = tested on: DU-145 prostate
EKVX NSCLC = tested on: EKVX NSCLC
HCC-2998 colon = tested on: HCC-2998 colon
HCT-116 colon = tested on: HCT-116 colon
HCT-15 colon = tested on: HCT-15 colon
HL-60(TB) leukemia = tested on: HL-60(TB) leukemia
HOP-62 NSCLC = tested on: HOP-62 NSCLC
HS 578T breast = tested on: HS 578T breast
HT29 colon = tested on: HT29 colon
IGROV1 ovarian = tested on: IGROV1 ovarian
K-562 leukemia = tested on: K-562 leukemia
KM12 colon = tested on: KM12 colon
M14 melanoma = tested on: M14 melanoma
MCF7 breast = tested on: MCF7 breast
MDA-MB-231 breast = tested on: MDA-MB-231 breast
MDA-MB-435 = tested on: MDA-MB-435
MDA-N = tested on: MDA-N
MOLT-4 leukemia = tested on: MOLT-4 leukemia
NCI-H23 lung = tested on: NCI-H23 lung
NCI-H460 lung = tested on: NCI-H460 lung
NCI-H522 lung = tested on: NCI-H522 lung
NCI/ADR-RES ovarian = tested on: NCI/ADR-RES ovarian
OVCAR-3 ovarian = tested on: OVCAR-3 ovarian
OVCAR-4 ovarian = tested on: OVCAR-4 ovarian
OVCAR-8 ovarian = tested on: OVCAR-8 ovarian
PC-3 prostate = tested on: PC-3 prostate
RPMI-8226 leukemia = tested on: RPMI-8226 leukemia
RXF 393 renal = tested on: RXF 393 renal
SF-268 CNS = tested on: SF-268 CNS
SF-295 CNS = tested on: SF-295 CNS
SF-539 CNS = tested on: SF-539 CNS
SK-MEL-28 melanoma = tested on: SK-MEL-28 melanoma
SK-MEL-5 melanoma = tested on: SK-MEL-5 melanoma
SK-OV-3 ovarian = tested on: SK-OV-3 ovarian
SN12C renal = tested on: SN12C renal
SNB-19 CNS = tested on: SNB-19 CNS
SNB-75 CNS = tested on: SNB-75 CNS
SR leukemia = tested on: SR leukemia
SW-620 colon = tested on: SW-620 colon
T-47D breast = tested on: T-47D breast
TK-10 renal = tested on: TK-10 renal
U251 CNS = tested on: U251 CNS
UACC-257 melanoma = tested on: UACC-257 melanoma
UACC-62 melanoma = tested on: UACC-62 melanoma
UO-31 renal = tested on: UO-31 renal
A498 renal = tested on: A498 renal
LOX IMVI melanoma = tested on: LOX IMVI melanoma
MALME-3M melanoma = tested on: MALME-3M melanoma
OVCAR-5 ovarian = tested on: OVCAR-5 ovarian
SK-MEL-2 melanoma = tested on: SK-MEL-2 melanoma

Measured: TGI

CN(/N=C/c1cccs1)c1ccc([N+](=O)[O-])cc1[N+](=O)[O-]
not listed: A498 renal | LOX IMVI melanoma | MALME-3M melanoma | OVCAR-5 ovarian | SK-MEL-2 melanoma
> 100 µM: all other assays above

COC(=O)c1cc(-c2c[nH]cc2C(=O)OCc2ccccc2)cn1S(=O)(=O)c1ccc(C)cc1
not listed: HL-60(TB) leukemia | MDA-MB-435 | RPMI-8226 leukemia | SK-MEL-28 melanoma | SW-620 colon | U251 CNS
> 100 µM: all other assays above
